From ChEMBL document CHEMBL4765228, “Indole-like Trk receptor antagonists” (Eur J Med Chem, 2016)

What was measured:
[1] = biological target: Tyrosine-protein kinase BTK (Homo sapiens) (UniProt Q06187); assay: Inhibition of human BTK assessed as residual activity at 1 uM relative to control
[2] = biological target: T1, Eukaryotic elongation factor 2 kinase (Homo sapiens) (UniProt O00418); assay: Inhibition of human EEF2K assessed as residual activity at 1 uM relative to control
T1 sequence (whole entry): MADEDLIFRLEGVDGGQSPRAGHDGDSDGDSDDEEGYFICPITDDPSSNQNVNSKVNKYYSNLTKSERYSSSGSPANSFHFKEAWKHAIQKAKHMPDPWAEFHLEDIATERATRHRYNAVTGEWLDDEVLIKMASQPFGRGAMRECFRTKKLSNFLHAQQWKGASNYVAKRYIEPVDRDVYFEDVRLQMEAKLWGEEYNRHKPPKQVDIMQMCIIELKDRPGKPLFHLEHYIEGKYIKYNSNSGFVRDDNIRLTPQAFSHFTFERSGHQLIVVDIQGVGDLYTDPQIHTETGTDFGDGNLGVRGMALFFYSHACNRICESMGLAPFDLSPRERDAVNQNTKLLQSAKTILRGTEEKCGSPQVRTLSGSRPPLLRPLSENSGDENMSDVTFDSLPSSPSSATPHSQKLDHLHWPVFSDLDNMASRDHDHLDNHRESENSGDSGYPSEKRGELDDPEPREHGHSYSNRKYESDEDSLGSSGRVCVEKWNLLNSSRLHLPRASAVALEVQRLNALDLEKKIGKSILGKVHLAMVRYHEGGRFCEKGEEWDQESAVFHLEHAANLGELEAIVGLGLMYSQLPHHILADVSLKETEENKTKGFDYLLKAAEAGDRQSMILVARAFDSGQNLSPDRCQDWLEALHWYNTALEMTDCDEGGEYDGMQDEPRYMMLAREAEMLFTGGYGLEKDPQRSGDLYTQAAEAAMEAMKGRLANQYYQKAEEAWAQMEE

[3] = biological target: Ephrin type-A receptor 2 (Homo sapiens) (UniProt P29317); assay: Inhibition of human EPHA2 assessed as residual activity at 0.1 uM relative to control
Sequence of Ephrin type-A receptor 2 (Homo sapiens) (P29317 whole entry): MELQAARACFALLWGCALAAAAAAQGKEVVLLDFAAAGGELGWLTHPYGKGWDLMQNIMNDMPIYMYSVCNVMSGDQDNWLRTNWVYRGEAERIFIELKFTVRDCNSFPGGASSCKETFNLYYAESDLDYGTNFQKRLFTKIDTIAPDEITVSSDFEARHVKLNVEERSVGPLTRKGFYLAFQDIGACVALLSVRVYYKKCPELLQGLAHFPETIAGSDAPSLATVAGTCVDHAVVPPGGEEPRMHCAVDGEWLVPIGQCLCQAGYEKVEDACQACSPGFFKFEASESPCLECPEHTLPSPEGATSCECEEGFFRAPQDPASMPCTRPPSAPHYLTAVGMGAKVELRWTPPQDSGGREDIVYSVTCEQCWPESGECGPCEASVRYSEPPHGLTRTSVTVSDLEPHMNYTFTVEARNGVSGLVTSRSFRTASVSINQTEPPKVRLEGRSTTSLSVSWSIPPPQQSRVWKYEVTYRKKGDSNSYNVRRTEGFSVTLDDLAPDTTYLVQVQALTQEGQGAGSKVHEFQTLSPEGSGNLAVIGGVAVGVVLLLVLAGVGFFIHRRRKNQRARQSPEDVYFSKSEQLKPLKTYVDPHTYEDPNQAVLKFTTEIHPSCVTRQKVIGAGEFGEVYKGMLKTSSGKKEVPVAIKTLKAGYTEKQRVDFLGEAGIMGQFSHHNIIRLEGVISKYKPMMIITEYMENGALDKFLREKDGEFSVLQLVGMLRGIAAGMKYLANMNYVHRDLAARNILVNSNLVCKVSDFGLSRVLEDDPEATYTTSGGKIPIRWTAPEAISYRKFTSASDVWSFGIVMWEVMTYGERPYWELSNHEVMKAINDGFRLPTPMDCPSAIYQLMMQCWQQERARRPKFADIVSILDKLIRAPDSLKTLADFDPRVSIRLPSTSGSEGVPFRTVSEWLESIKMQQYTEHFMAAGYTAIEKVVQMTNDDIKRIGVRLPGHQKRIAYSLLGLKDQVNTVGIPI

[4] = biological target: Receptor tyrosine-protein kinase erbB-4 (Homo sapiens) (UniProt Q15303); assay: Inhibition of human ERBB4 assessed as residual activity at 0.1 uM relative to control
Sequence of Receptor tyrosine-protein kinase erbB-4 (Homo sapiens) (Q15303 whole entry): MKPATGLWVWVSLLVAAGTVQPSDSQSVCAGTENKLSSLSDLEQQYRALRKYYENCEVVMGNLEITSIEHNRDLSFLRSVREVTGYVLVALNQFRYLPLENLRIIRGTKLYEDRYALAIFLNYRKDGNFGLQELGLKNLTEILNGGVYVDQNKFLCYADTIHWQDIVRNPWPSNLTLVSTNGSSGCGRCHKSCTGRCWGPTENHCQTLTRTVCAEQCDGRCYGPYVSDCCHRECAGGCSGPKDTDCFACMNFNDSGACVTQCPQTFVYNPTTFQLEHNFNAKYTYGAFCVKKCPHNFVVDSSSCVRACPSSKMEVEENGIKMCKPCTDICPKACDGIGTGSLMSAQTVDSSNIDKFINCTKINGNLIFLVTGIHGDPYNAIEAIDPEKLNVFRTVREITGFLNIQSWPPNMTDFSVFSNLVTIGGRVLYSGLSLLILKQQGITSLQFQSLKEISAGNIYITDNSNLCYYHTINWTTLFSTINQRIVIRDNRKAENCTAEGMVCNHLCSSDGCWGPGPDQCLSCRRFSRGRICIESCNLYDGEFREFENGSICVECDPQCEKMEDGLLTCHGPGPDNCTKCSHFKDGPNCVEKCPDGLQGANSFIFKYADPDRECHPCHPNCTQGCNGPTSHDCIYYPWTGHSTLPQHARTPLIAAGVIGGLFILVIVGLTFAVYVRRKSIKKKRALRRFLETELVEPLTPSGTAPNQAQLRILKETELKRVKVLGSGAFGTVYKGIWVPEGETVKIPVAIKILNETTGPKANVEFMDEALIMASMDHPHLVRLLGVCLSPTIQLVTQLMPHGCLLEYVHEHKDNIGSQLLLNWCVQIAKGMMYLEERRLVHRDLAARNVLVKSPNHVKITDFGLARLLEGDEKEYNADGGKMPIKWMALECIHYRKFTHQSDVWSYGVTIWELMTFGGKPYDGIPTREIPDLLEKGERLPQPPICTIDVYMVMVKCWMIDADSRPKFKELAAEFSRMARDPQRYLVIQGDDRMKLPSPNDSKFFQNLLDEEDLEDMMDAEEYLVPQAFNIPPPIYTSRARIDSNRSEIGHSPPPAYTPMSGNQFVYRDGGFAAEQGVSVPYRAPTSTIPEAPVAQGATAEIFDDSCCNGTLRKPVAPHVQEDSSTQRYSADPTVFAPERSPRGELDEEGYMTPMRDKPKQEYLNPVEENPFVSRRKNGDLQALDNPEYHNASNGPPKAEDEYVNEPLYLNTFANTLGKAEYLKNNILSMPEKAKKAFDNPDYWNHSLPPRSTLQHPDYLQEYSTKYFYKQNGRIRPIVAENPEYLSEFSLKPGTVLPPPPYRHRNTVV

[5] = biological target: Insulin-like growth factor 1 receptor (Homo sapiens) (UniProt P08069); assay: Inhibition of human IGF1R assessed as residual activity at 0.1 uM relative to control
[6] = biological target: Protein kinase C alpha type (Homo sapiens) (UniProt P17252); assay: Inhibition of human PKCalpha assessed as residual activity at 1 uM relative to control
[7] = biological target: T2, Serine/threonine-protein kinase D1 (Homo sapiens) (UniProt Q15139); assay: Inhibition of human PKCmu assessed as residual activity at 0.1 uM relative to control
T2 sequence (whole entry): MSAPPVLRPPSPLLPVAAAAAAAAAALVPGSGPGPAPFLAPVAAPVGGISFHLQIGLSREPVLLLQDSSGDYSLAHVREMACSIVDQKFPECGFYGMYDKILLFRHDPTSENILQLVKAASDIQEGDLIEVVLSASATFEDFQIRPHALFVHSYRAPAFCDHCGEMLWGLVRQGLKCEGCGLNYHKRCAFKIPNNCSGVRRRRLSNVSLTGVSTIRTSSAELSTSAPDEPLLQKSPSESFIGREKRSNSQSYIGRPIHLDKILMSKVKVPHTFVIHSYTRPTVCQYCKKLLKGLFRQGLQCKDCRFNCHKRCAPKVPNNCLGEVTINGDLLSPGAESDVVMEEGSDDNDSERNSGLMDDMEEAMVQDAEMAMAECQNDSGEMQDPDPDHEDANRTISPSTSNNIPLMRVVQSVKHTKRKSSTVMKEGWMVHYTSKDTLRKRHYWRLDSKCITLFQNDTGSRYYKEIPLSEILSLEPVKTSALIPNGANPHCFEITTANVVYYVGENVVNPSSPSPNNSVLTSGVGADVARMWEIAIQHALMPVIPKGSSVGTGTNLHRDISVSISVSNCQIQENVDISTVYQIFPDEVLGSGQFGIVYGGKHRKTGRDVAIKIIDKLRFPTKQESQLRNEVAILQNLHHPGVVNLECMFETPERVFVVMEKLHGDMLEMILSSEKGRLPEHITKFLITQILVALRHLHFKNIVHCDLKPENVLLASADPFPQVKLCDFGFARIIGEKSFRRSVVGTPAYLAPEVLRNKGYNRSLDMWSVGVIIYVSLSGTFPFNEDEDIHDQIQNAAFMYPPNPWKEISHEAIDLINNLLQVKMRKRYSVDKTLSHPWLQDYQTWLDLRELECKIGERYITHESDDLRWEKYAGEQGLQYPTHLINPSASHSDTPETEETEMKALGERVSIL

[8] = biological target: T3, Serine/threonine-protein kinase TBK1 (Homo sapiens) (UniProt Q9UHD2); assay: Inhibition of human TBK1 assessed as residual activity at 0.1 uM relative to control
T3 sequence (whole entry): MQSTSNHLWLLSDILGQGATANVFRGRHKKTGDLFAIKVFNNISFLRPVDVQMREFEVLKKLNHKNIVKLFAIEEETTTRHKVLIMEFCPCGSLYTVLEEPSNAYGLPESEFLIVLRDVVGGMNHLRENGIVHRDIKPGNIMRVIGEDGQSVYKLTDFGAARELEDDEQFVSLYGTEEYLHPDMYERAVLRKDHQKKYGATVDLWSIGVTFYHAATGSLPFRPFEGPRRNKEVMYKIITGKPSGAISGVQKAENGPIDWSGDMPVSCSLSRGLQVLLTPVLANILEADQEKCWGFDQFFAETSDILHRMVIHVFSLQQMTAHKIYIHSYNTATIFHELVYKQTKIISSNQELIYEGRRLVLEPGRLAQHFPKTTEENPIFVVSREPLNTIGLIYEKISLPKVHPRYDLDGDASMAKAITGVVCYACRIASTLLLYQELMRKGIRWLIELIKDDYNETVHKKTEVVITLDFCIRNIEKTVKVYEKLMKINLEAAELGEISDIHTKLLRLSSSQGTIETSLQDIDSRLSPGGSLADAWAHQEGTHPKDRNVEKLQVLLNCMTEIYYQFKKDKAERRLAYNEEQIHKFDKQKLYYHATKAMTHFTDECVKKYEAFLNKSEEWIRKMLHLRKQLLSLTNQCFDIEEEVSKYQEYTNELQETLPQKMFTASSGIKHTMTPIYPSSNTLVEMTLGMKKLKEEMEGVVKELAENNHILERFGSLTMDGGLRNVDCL

[9] = biological target: Vascular endothelial growth factor receptor 1 (Homo sapiens) (UniProt P17948); assay: Inhibition of human VEGFR1 assessed as residual activity at 1 uM relative to control
Sequence of Vascular endothelial growth factor receptor 1 (Homo sapiens) (P17948 whole entry): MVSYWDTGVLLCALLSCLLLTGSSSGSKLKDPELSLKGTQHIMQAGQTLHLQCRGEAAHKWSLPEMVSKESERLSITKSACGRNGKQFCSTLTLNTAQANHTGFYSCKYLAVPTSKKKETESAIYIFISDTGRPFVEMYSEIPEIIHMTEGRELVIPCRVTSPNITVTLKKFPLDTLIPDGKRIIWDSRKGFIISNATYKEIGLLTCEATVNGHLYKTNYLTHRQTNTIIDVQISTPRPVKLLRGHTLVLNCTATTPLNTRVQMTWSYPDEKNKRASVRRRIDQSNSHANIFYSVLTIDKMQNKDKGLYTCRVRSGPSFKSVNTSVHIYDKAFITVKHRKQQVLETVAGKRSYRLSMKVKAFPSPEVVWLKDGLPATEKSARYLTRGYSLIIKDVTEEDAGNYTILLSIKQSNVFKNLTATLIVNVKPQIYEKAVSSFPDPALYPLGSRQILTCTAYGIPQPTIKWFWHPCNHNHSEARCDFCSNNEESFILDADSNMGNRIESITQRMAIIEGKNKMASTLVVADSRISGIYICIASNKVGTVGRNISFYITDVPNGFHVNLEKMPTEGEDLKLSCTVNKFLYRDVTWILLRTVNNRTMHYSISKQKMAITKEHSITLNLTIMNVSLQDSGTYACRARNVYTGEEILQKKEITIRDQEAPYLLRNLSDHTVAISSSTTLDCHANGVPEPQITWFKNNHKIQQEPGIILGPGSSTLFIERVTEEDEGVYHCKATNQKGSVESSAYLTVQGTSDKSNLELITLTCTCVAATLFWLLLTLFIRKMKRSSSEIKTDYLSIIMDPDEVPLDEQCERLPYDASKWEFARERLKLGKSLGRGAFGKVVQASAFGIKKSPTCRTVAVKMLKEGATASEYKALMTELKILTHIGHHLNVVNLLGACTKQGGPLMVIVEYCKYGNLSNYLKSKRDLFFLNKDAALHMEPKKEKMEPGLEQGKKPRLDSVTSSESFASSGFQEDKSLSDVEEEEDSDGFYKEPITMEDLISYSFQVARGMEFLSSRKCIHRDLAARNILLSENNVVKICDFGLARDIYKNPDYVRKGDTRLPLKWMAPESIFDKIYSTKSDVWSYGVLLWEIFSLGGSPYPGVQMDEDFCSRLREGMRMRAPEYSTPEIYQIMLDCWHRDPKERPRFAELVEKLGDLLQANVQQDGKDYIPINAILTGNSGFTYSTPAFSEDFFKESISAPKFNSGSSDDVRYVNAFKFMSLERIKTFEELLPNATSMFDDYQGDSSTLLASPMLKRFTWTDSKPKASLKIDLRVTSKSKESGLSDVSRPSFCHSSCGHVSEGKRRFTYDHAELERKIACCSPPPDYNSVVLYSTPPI

Sequence of Tyrosine-protein kinase BTK (Homo sapiens) (Q06187 whole entry): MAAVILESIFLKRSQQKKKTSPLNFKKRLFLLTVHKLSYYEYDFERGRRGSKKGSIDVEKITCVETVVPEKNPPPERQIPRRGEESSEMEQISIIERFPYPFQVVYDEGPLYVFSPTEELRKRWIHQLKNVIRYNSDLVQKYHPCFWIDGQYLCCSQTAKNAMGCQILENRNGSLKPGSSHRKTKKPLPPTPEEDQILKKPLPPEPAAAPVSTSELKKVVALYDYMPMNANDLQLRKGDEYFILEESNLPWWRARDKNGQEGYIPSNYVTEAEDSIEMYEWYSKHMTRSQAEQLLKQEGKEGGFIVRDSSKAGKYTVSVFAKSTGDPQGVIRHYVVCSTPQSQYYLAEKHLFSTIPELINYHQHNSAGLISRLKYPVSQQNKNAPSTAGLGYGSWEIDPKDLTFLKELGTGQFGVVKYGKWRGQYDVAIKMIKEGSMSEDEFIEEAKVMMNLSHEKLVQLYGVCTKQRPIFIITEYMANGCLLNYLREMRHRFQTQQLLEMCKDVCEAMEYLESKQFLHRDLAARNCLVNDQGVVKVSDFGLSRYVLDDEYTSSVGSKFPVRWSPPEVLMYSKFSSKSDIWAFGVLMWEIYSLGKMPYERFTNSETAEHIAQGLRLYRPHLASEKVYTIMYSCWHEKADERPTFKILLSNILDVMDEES

| Compound | Activity [1] | Activity [2] | Activity [3] | Activity [4] | Activity [5] | Activity [6] | Activity [7] | Activity [8] | Activity [9] |
| --- | --- | --- | --- | --- | --- | --- | --- | --- | --- |
| COc1ccc2c(c1)c(/C=C1\C(=O)Nc3ccc(S(N)(=O)=O)cc31)cn2C | 107% | 102% | 98% | 101% | 105% | 102% | 90% | 79% | 85% |
| COc1ccc2[nH]cc(/C=C3\C(=O)Nc4ccc(S(N)(=O)=O)cc43)c2c1 | 91% | 112% | 110% | 94% | 98% | 87% | 95% | 96% | 76% |
| CN(C)S(=O)(=O)c1ccc2c(c1)/C(=C/c1cn(C)c3ccc(O)cc13)C(=O)N2 | 107% | 106% | 111% | 110% | 102% | 103% | 99% | 96% | 93% |
| Cn1cc(/C=C2\C(=O)Nc3ccc(S(N)(=O)=O)cc32)c2ccccc21 | 119% | 103% | 99% | 94% | 105% | 94% | 95% | 75% | 81% |
| COc1ccc2c(c1)c(/C=C1\C(=O)Nc3ccc(S(=O)(=O)N(C)C)cc31)cn2C | 89% | 86% | 106% | 103% | 94% | 95% | 89% | 100% | 93% |
| CNS(=O)(=O)c1ccc2c(c1)/C(=C/c1cn(C)c3ccc(OC)cc13)C(=O)N2 | 73% | 92% | 100% | 98% | 96% | 103% | 92% | 97% | 59% |
